Results published in ChEMBL document CHEMBL4368902 (J Med Chem, 2019).
The source made the active and inactive calls. The rule behind the calls is not given here. Positions of bridges follow the written chain, without caps; N, C: chain ends. Non-standard residues stand in square brackets, D forms with d. Residues, ends and D or L forms follow the SMILES beside them. Nle = CCCC[C@H](N)C(=O)O

Assays:
[1] = system: Mus musculus; test: Anorexigenic activity in C57BL/6J mouse assessed as reduction in ghrelin-induced food intake at 0.6 nmol/g body weight, sc measured after 2 hrs post dose; assay type: functional, organism-based
[2] = system: Mus musculus; test: Effect on food intake in C57BL/6J mouse at 0.6 nmol/g body weight, sc measured after 2 hrs post dose; assay type: ADME, organism-based; settings: in vivo
[3] = biological target: T1, Growth hormone secretagogue receptor type 1 (Homo sapiens, UniProt Q92847); test: Competitive antagonist activity at human SNAP-tagged GHSR expressed in HEK293T cells assessed as reduction in ghrelin-induced calcium production at 1 uM after 15 mins by Fluo 4-AM dye-based fluorescence assay; assay type: functional, cell-based; settings: read-out: pA2 (converted)
[4] = biological target: T1, Growth hormone secretagogue receptor type 1; test: Displacement of […] from SNAP-tagged human GHSR expressed in HEK293T cells after 3 hrs by HTRF assay; assay type: cell-based
[5] = biological target: T1, Growth hormone secretagogue receptor type 1; test: Inverse agonist activity at SNAP-tagged human GHSR expressed in HEK293T cells assessed as reduction in inositol phosphate production after 30 mins by HTRF assay; assay type: functional, cell-based
[6] = biological target: T1, Growth hormone secretagogue receptor type 1; test: Competitive antagonist activity at SNAP-tagged human GHSR expressed in HEK293T cells assessed as reduction in ghrelin-induced inositol phosphate production at 1 uM after 30 mins by HTRF assay; assay type: functional, cell-based; settings: read-out: pA2 (converted)
[7] = biological target: Growth hormone secretagogue receptor type 1 (Rattus norvegicus) (UniProt O08725); test: Inverse agonist activity at GHSR in Wistar rat pancreatic islets assessed as inhibition of ghrelin-induced insulinostatic action after 1 hr in presence of glucose
Growth hormone secretagogue receptor type 1 (Rattus norvegicus), sequence (O08725 whole entry, looked up): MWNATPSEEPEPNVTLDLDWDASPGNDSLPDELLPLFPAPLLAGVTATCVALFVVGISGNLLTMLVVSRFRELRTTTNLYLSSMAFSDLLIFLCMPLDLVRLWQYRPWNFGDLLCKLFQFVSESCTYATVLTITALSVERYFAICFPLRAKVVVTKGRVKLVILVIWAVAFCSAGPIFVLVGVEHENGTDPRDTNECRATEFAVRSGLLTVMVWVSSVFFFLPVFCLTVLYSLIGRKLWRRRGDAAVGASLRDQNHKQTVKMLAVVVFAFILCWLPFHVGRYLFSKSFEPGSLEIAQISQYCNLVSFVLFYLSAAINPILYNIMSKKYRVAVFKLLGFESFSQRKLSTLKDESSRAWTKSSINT

T1 sequence (Q92847 whole entry): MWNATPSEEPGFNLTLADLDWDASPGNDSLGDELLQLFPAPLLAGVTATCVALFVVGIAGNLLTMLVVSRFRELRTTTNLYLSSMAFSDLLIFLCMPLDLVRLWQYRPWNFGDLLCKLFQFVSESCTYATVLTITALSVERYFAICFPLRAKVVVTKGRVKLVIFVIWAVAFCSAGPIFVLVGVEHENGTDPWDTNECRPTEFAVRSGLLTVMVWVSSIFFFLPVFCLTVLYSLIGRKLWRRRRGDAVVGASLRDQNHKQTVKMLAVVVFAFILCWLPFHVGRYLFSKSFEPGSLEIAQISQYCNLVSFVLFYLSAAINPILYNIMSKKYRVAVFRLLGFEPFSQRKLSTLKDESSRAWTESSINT

| Compound | Kb [3] | Ki [4] | EC50 [5] | Kb [6] | Activity [7] | Activity [1] | Activity [2] |
| --- | --- | --- | --- | --- | --- | --- | --- |
| CC(C)C[C@H](NC(=O)[C@H](CO)NC(=O)[C@@H]1CSSC[C@@H]2NC(=O)[C@H](CCC(=O)O)NC(=O)[C@H](CO)NC(=O)[C@@H](CC(=O)O)NC(=O)[C@@H](CC(=O)O)NC(=O)[C@@H](CCCNC(=N)N)NC(=O)[C@H](NC(=O)[C@@H](CO)NC(=O)[C@@H](C)N)CSSC[C@H](NC(=O)[C@H](CC(C)C)NC(=O)[C@H](CCCNC(=N)N)NC(=O)[C@H]([C@@H](C)O)NC(=O)[C@H]([C@@H](C)O)NC2=O)C(=O)N[C@@H](CCCNC(=N)N)C(=O)N[C@@H](CCCCN)C(=O)N[C@@H](CCCNC(=N)N)C(=O)N[C@@H](CCCNC(=N)N)C(=O)N1)C(=O)N[C@@H](CO)C(=O)N[C@H](C(=O)N[C@@H](C)C(=O)N[C@@H](CCC(N)=O)C(=O)N[C@@H](CCC(=O)O)C(=O)O)C(C)C | – | – | – | – | – | inactive | – |
| CCCC[C@H](N)C(=O)N[C@H](C(=O)N1CCC[C@H]1C(=O)N[C@@H](Cc1ccccc1)C(=O)N[C@@H](Cc1c[nH]c2ccccc12)C(=O)N[C@@H](CCCNC(=N)N)C(=O)NCC(=O)N[C@H](C(=O)N[C@@H](CO)C(=O)N[C@@H](CC(C)C)C(=O)N[C@@H](CCCNC(=N)N)C(=O)N1CCC[C@H]1C(=O)N[C@H](C(=O)NCC(=O)N[C@H](C)C(=O)N[C@H](CO)C(=O)N[C@@H]1CSSC[C@@H]2NC(=O)[C@H](CC(C)C)NC(=O)[C@H](CCCNC(=N)N)NC(=O)[C@H]([C@@H](C)O)NC(=O)[C@H]([C@@H](C)O)NC(=O)[C@H](CSSC[C@@H](C(=O)N[C@@H](CO)C(=O)N[C@@H](CC(C)C)C(=O)N[C@@H](CO)C(=O)N[C@H](C(=O)N[C@@H](C)C(=O)N[C@@H](CCC(N)=O)C(=O)N[C@@H](CCC(=O)O)C(=O)O)C(C)C)NC(=O)[C@H](CCCNC(=N)N)NC(=O)[C@H](CCCNC(=N)N)NC(=O)[C@H](CCCCN)NC(=O)[C@H](CCCNC(=N)N)NC2=O)NC(=O)[C@H](CCC(=O)O)NC(=O)[C@H](CO)NC(=O)[C@@H](CC(=O)O)NC(=O)[C@@H](CC(=O)O)NC(=O)[C@@H](CCCNC(=N)N)NC1=O)[C@@H](C)CC)C(C)C)[C@@H](C)O | – | – | – | – | – | Active | – |
| CC[C@H](C)[C@@H]1NC(=O)[C@@H]2CSSC[C@@H](C(=O)N[C@@H](CO)C(=O)N[C@@H](CC(C)C)C(=O)N[C@@H](CO)C(=O)N[C@H](C(=O)N[C@@H](C)C(=O)N[C@@H](CCC(N)=O)C(=O)N[C@@H](CCC(=O)O)C(=O)O)C(C)C)NC(=O)[C@H](CCCNC(=N)N)NC(=O)[C@H](CCCNC(=N)N)NC(=O)[C@H](CCCCN)NC(=O)[C@H](CCCNC(=N)N)NC(=O)[C@H](CSSC[C@H](NC(=O)[C@H](CO)NC(=O)[C@H](C)N)C(=O)N[C@@H](CCCNC(=N)N)C(=O)N[C@@H](CC(=O)O)C(=O)N[C@@H](CC(=O)O)C(=O)N[C@@H](CO)C(=O)N[C@@H](CCC(=O)O)C(=O)N2)NC(=O)[C@H](CC(C)C)NC(=O)[C@H](CCCNC(=N)N)NC(=O)[C@H]([C@@H](C)O)NC1=O (H-ASCRDDSECITRLCRKRRCSLSVAQE-OH; disulfide 3-14, 9-19) | – | – | – | – | – | – | Non-Toxic |
| CC[C@H](C)[C@@H]1NC(=O)[C@@H]2CSSC[C@@H](C(=O)N[C@@H](CO)C(=O)N[C@@H](CC(C)C)C(=O)N[C@@H](CO)C(=O)N[C@H](C(=O)N[C@@H](C)C(=O)N[C@@H](CCC(N)=O)C(=O)N[C@@H](CCC(=O)O)C(=O)O)C(C)C)NC(=O)[C@H](CCCNC(=N)N)NC(=O)[C@H](CCCNC(=N)N)NC(=O)[C@H](CCCCN)NC(=O)[C@H](CCCNC(=N)N)NC(=O)[C@H](CSSC[C@H](NC(=O)[C@H](CO)NC(=O)[C@H](C)NC(=O)CNC(=O)[C@@H](NC(=O)[C@@H]3CCCN3C(=O)[C@H](CCCNC(=N)N)NC(=O)[C@H](CC(C)C)NC(=O)[C@H](CO)NC(=O)[C@@H](NC(=O)CNC(=O)[C@H](CCCNC(=N)N)NC(=O)[C@H](Cc3c[nH]c4ccccc34)NC(=O)[C@H](Cc3ccccc3)NC(=O)[C@@H]3CCCN3C(=O)[C@@H](NC(=O)[C@@H](N)CCSC)[C@@H](C)O)C(C)C)[C@@H](C)CC)C(=O)N[C@@H](CCCNC(=N)N)C(=O)N[C@@H](CC(=O)O)C(=O)N[C@@H](CC(=O)O)C(=O)N[C@@H](CO)C(=O)N[C@@H](CCC(=O)O)C(=O)N2)NC(=O)[C@H](CC(C)C)NC(=O)[C@H](CCCNC(=N)N)NC(=O)[C@H]([C@@H](C)O)NC1=O (H-MTPFWRGVSLRPIGASCRDDSECITRLCRKRRCSLSVAQE-OH; disulfide 17-28, 23-33) | 10.2 nM | 1.26 nM | 22.8 nM | 1.48 nM | – | – | Non-Toxic |
| CCCC[C@H](N)C(=O)N[C@H](C(=O)N1CCC[C@H]1C(=O)N[C@@H](Cc1ccccc1)C(=O)N[C@@H](Cc1c[nH]c2ccccc12)C(=O)N[C@@H](CCCNC(=N)N)C(=O)NCC(=O)N[C@H](C(N)=O)C(C)C)[C@@H](C)O (H-[Nle]TPFWRGV-NH2) | – | 6.45 nM | 368 nM | – | – | – | – |
| CCCC[C@H](N)C(=O)N[C@H](C(=O)N1CCC[C@H]1C(=O)N[C@@H](Cc1ccccc1)C(=O)N[C@@H](Cc1c[nH]c2ccccc12)C(=O)N[C@@H](CCCNC(=N)N)C(=O)NCC(=O)N[C@H](C(=O)N[C@@H](CO)C(=O)N[C@@H](CC(C)C)C(=O)N[C@@H](CCCNC(=N)N)C(=O)N1CCC[C@H]1C(N)=O)C(C)C)[C@@H](C)O (H-[Nle]TPFWRGVSLRP-NH2) | – | 2.7 nM | 46 nM | – | Active | Active | Non-Toxic |

Continued, in another order:

| Kb [3] | Ki [4] | EC50 [5] | Kb [6] | Activity [7] | Compound | Activity [1] | Activity [2] |
| --- | --- | --- | --- | --- | --- | --- | --- |
| – | 55 nM | 6630 nM | – | – | CCCC[C@H](N)C(=O)N[C@H](C(=O)N1CCC[C@H]1C(=O)N[C@@H](Cc1ccccc1)C(=O)N[C@@H](Cc1c[nH]c2ccccc12)C(=O)N[C@@H](CCCNC(=N)N)C(N)=O)[C@@H](C)O (H-[Nle]TPFWR-NH2) | – | – |
| – | 3.4 nM | 134 nM | – | – | CCCC[C@H](N)C(=O)N[C@H](C(=O)N1CCC[C@H]1C(=O)N[C@@H](Cc1ccccc1)C(=O)N[C@@H](Cc1c[nH]c2ccccc12)C(=O)N[C@@H](CCCNC(=N)N)C(=O)NCC(=O)N[C@H](C(=O)N[C@@H](CO)C(=O)N[C@@H](CC(C)C)C(N)=O)C(C)C)[C@@H](C)O (H-[Nle]TPFWRGVSL-NH2) | – | – |
| – | 3.05 nM | 48 nM | – | – | CCCC[C@H](N)C(=O)N[C@H](C(=O)N1CCC[C@H]1C(=O)N[C@@H](Cc1ccccc1)C(=O)N[C@@H](Cc1c[nH]c2ccccc12)C(=O)N[C@@H](CCCNC(=N)N)C(=O)NCC(=O)N[C@H](C(=O)N[C@@H](CO)C(=O)N[C@@H](CC(C)C)C(=O)N[C@@H](CCCNC(=N)N)C(=O)N1CCC[C@H]1C(=O)N[C@H](C(=O)NCC(N)=O)[C@@H](C)CC)C(C)C)[C@@H](C)O (H-[Nle]TPFWRGVSLRPIG-NH2) | – | – |
| 89.1 nM | 3.66 nM | 76.4 nM | 34.7 nM | – | CCCC[C@H](N)C(=O)N[C@H](C(=O)N1CCC[C@H]1C(=O)N[C@@H](Cc1ccccc1)C(=O)N[C@@H](Cc1c[nH]c2ccccc12)C(=O)N[C@@H](CCCNC(=N)N)C(=O)NCC(=O)N[C@H](C(=O)N[C@@H](CO)C(=O)N[C@@H](CC(C)C)C(=O)N[C@@H](CCCNC(=N)N)C(=O)N1CCC[C@H]1C(=O)N[C@H](C(=O)NCC(=O)O)[C@@H](C)CC)C(C)C)[C@@H](C)O (H-[Nle]TPFWRGVSLRPIG-OH) | – | – |
